Source: patent publication US20140094413A1, “HEPATOCYTE GROWTH FACTOR (HGF) MIMICS AS THERAPEUTIC AGENTS” (WASHINGTON STATE UNIVERSITY, priority 2012, published 2014)
Entries after “also recorded” stand apart in the source; their conditions may differ. Where a name gives a salt, the structure may show the parent alone. Where a SMILES comes first, the peptide text is derived from it. [ ]: non-standard residue; d: D form. dNle = CCCC[C@@H](N)C(=O)O; Ahx = NCCCCCC(=O)O

Legend:
Met = test: Inhibition of HGF-dependent Met phosphorylation in HEK293 cells; format: cell-based, human; conditions: 10 min with HGF+/− analog
Procedure: HEK293 cells were seeded in 6 well tissue culture plates and grown to 95% confluency in DMEM containing 10% FBS. The cells were serum deprived for 24 h prior to the treatment to reduce the basal levels of phospho-Met. Following serum starvation, cocktails comprised of vehicle and HGF with/without 6-AH analogs were prepared and pre-incubated for 30 min at room temperature. The cocktail was then added to the cells for 10 min to stimulate the Met receptor and downstream proteins. Cells were harvested using RIPA lysis buffer (Millipore; Billerica, Mass.) fortified with phosphatase inhibitor cocktails 1 and 2 (Sigma-Aldrich; St. Louis, Mo.). The lysate was clarified by centrifugation at 15,000 nx g for 15 min, protein concentrations were determined using the BCA total protein assay (Pierce), and then appropriate volumes of the lysates were diluted with 2× reducing Laemmli buffer and heated for ten min at 95° C. Samples containing identical amounts of protein were resolved using SDS-PAGE (Criterion, BioRad Laboratories), transferred to nitrocellulose, and blocked in Tris-buffered saline (TBS) containing 5% milk for 1 h at room temperature. The phospho-Met antibody were added to the blocking buffer at a final concentration of 1:1000 and incubated at 4° C. overnight with gentle agitation. The membranes were then washed several times with water and TBS ([…], 0.05% Tween-20), a 1:5000 dilution of horseradish-peroxidase conjugated goat anti-rabbit antiserum was added, and the membranes further incubated for 1 h at room temperature. Proteins were visualized using the Supersignal West Pico Chemiluminescent Substrate system (Pierce, Fenton, Mo.) and molecular weights determined by comparison to protein ladders (BenchMark, Invitrogen, and Kaleidoscope, BioRad). Film images were digitized and analyzed using a UVP phosphoimager.

human HGF [1] = molecular target: T1, human HGF (Homo sapiens, UniProt P14210); test: HGF binding, competition with 3H-Hinge; conditions: 1.25 ng HGF, 40 min at 37° C.; N=9
T1 construct: purchased R&D Systems (Minneapolis, Minn.)
T1 sequence (P14210 32-728): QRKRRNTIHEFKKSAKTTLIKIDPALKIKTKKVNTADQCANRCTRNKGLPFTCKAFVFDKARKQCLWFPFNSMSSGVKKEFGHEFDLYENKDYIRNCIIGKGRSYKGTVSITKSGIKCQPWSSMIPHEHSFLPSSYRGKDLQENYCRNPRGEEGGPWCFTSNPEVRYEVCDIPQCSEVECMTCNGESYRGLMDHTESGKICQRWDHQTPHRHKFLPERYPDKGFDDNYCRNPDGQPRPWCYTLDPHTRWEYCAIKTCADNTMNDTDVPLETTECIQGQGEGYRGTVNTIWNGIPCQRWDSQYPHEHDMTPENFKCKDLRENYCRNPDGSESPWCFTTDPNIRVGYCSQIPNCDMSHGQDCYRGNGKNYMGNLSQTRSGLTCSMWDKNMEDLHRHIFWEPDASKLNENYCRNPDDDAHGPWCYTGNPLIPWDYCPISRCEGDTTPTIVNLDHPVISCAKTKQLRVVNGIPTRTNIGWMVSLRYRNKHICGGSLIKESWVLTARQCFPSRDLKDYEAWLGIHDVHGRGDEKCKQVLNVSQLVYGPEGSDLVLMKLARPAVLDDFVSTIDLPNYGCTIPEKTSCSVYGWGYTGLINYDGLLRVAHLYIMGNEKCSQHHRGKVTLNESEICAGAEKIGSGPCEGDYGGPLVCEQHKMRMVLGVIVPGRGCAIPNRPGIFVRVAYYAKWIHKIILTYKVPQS
Procedure: The binding of 6-AH analogs to HGF was assessed by competition using a soluble binding assay. 250 μl of PBS containing human HGF (1.25 ng) were incubated with ^3H-Hinge, the central dimerization domain of HGF, in the presence of varying concentrations of 6-AH analogs between 10^−13 M to 10^−7M (half-log dilutions) for 40 min at 37° C. The incubates were then spun through Bio-Gel P6 spin columns (400 μl packed volume) for 1 min to separate free and bound ^3H-Hinge and the eluent was collected. Five milliliters of scintillation fluid was added to the eluent, which contained the HGF bound ^3H-Hinge, and was then counted using scintillation counter. Total disintegrations per minute of bound ^3H-Hinge were calculated based on machine counting efficiency. The Ki values for the binding of the peptides were determined using the Prism 5. Competition binding curves were performed in triplicate.

MDCK cells [2] = test: Inhibition of HGF-dependent scattering in MDCK cells; format: cell-based, canine; conditions: HGF 20 ng/ml, 48 h
Procedure: MDCK cells were grown to 100% confluency on the coverslips in six-well plates and washed twice with PBS. The confluent coverslips were then aseptically transferred to new six well plates containing 900 μl serum free DMEM. Norleual, Hinge peptide, and/or HGF (20 ng/ml) were added to appropriate wells. Control wells received PBS vehicle. Plates were incubated at 37° C. with 5% CO2 for 48 h. Media was removed and cells were fixed with methanol. Cells were stained with Diff-Quik Wright-Giemsa (Dade-Behring, Newark, Del.) and digital images were taken. Coverslips were removed with forceps and more digital images were captured. Pixel quantification of images was achieved using Image J and statistics were performed using Prism 5 and InStat v.3.05 (GraphPad; San Diego, Calif.).

human HGF [3] = molecular target: T1, human HGF; test: HGF dimerization; format: biochemical; conditions: analogs at 10^−10 M, heparin, 30 minute incubation
Procedure: HGF dimerization was assessed using PAGE followed by silver staining (Kawas et al., 2011). Human HGF at a concentration of 0.08 ng/μl with or without 6-AH analogs was incubated with heparin at a final concentration of 5 μg/ml. Loading buffer was then added to each sample and the mixture separated by native PAGE using gradient Criterion XT precast gels (4-12% Bis-Tris; Biorad Laboratories, Hercules, Calif.). Next the gel was silver stained for the detection of the HGF monomers and dimers. Bands were quantitated from digital images using a UVP phosphoimager (Upland, Calif.).

MDCK cells [4] = test: HGF-dependent MDCK cell proliferation (MTT); format: cell-based, canine; conditions: analogs at 10^−10M, HGF 10 ng/ml, 4 days
Procedure: 5000 MDCK cells were seeded into the wells of a 96 well plates in 10% FBS DMEM. To induce cellular quiescence, the cells were serum deprived for 24 h prior to initiating the treatments. Following serum starvation, 10 ng/ml HGF alone and with various concentrations of 6-AH analogs or PBS vehicle were added to the media. The cells were allowed to grow under these conditions for 4 days with a daily addition of 6-AH analogs. On the fourth day, 1 mg/ml of […] (MTT, Sigma-Aldrich) prepared in PBS was added to the cells and incubated for 4 h. Dimethyl sulfoxide diluted in a 0.01M glycine buffer was added to solubilize the cell membranes and the absorbance of reduced MTT in the buffer was quantitated at 590 nm using a plate reader (Biotek Synergy 2, Winooski, Vt.). HGF-dependent proliferation was determined by subtracting the basal proliferation (in the absence of HGF) from total proliferation rates in groups containing HGF.

rats = test: Morris water maze with i.c.v. Dihexa and HGF antagonist Hinge; format: in vivo, rat
hippocampal neurons [5] = test: Whole-cell recordings of mEPSCs in dissociated hippocampal neurons; format: cell-based, rat; set-up: unit not given beside the values; conditions: 10^−12 M (each), 5 days
scopolamine treated rats = test: Morris water maze, scopolamine amnesia model; conditions: Hinge 20 ng ICV; Dihexa 2 mg/kg orally; scopolamine 70 μg ICV
Procedure: Male Sprague-Dawley rats (Taconic derived) weighing 390-450 g were maintained with free access to water and food (Harland Tekland F6 rodent diet, Madison, Wis.) except the night prior to surgery when food was removed. Each animal was anesthetized with Ketamine hydrochloride plus Xylazine (100 and 2 mg/kg im. respectively; Phoenix Scientific; St. Joseph, Mo., and Moby; Shawnee, Kans.). […] The guide cannula measured 2.5 cm in overall length and was prepared with a heat bulge placed 2.5 mm from its beveled tip, thus acting as a stop to control the depth of penetration. Once in position, the cannula was secured to the skull with two stainless-steel screws and dental cement. Post-operatively the animals were housed individually in an American Accreditation for Laboratory Animal Care-approved vivarium maintained at 22±1° C. on a 12-h alternating light/dark cycle initiated at 06:00 h. All animals were hand gentled for 5 min per day during the 5-6 days of post-surgical recovery. Histological verification of cannula placement was accomplished by the injection of 5 μl fast-green dye via the guide cannula following the completion of behavioral testing.
A black circular platform (diameter: 12 cm; height: 24 cm) was placed 30 cm from the wall and submerged 2 cm below the water surface. The maze was operationally sectioned into four equal quadrants designated NW, NE, SW, and SE. For each rat the location of the platform was randomly assigned to one of the quadrants and remained fixed throughout the duration of training. Entry points were at the quadrant corners (i.e. N, S, E, and W) and were pseudo-randomly assigned such that each trial began at a different entry point than the preceding trial. Three of the four testing room walls were covered with extra-maze spatial cues consisting of different shapes (circles, squares, triangles) and colors. The swimming path of the animals was recorded using a computerized video tracking system (Chromotrack; San Diego Instruments, CA). […] Swim speed was determined from these values.
Each member of the treatment groups in the scopolamine studies received an icy injection of scopolamine hydrobromide (70 nmol in 2 μl aCSF over a duration of 20 s) 30 min prior to testing followed by Dihexa 10 min prior to testing. Control groups received scopolamine or aCSF 20 min prior to testing followed by aCSF 10 min prior testing. […] The rats in the aged rat study on received Dihexa of aCSF (control group). Briefly, acquisition trials were conducted on 8 consecutive days with 5 trials/day. On the first day of training the animal was placed on the platform for 30 s prior to the first trial. Trials commenced with the placement of the rat facing the wall of the maze at one of the assigned entry points. […] Once the animal located the platform it was permitted a 30 s rest period on the platform. […] The next trial commenced immediately following the rest period.
Following day 8 of acquisition training, one additional trial was conducted during which the platform was removed (probe trial). […] Total time spent within the target quadrant where the platform had been located during acquisition and the number of crossings of that quadrant was recorded.

hippocampal neurons [6] = test: Spinogenesis in mRFP-β-actin transfected dissociated hippocampal neurons; format: cell-based, rat
Procedure: (§1) Hippocampal neurons (2×10^5 cells per square cm) were cultured from P1 Sprague Dawley rats on plates coated with poly-L-lysine from Sigma (St. Louis, Mo.; molecular weight 300,000). Hippocampal neurons were maintained in Neurobasal A media from Invitrogen (Carlsbad, Calif.) supplemented with B27 from Invitrogen, 0.5 mM L-glutamine, and […] cytosine-D-arabinofuranoside from Sigma added at 2 days in vitro. Hippocampal neurons were then cultured a further 3-7 days, at which time they were either transfected or treated with various pharmacological reagents as described in (Wayman, Davare et al. 2008).
(§2) Neurons were transfected with mRFP-β-actin on day in vitro 6 (DIV6) using LipofectAMINE™ 2000 (Invitrogen) according to the manufacturer's protocol. This protocol yielded the desired 3-5% transfection efficiency thus enabling the visualization of individual neurons. Higher efficiencies obscured the dendritic arbor of individual neurons. Expression of fluorescently tagged actin allowed clear visualization of dendritic spines, as dendritic spines are enriched in actin. […] On DIV 12 the neurons were fixed (4% paraformaldehyde, 3% sucrose, 60 mM PIPES, 25 mM HEPES, 5 mM EGTA, 1 mM MgCl2, pH 7.4) for 20 min at room temperature and mounted. Slides were dried for at least 20 hours at 4° C. and fluorescent images were obtained with Slidebook 4.2 Digital Microscopy Software driving an Olympus IX81 inverted confocal microscope with a 60× oil immersion lens, NA 1.4 and resolution 0.280 μm Dendritic spine density was measured on primary and secondary dendrites at a distance of at least 150 μm from the soma. Five 50 μm long segments of dendrite from at least 10 neurons per data point were analyzed for each data point reported. Each experiment was repeated at least three times using independent culture preparations. Dendrite length was determined using the National Institutes of Health's Image J 1.41o program (NIH, Bethesda, Md.) and the neurite tracing program Neuron J (Meijering, Jacob et al. 2004) Spines were manually counted.
as §1, with “centimeter)” for “cm)”, “P1-2” for “P1”, “the text or figure legends.” for “(Wayman, Davare et al. 2008).”
as §2, with “DIV12” for “DIV 12”, “Dendrite length was determined using the National Institutes of Health's Image J 1.41o program (NIH, Bethesda, Md.) and the neurite tracing program Neuron J (Meijering, Jacob et al. 2004) Spines were manually counted.” left out

[7] = aCSF followed by Hinge, no scopolamine

Molecule: CCCC[C@@H](N)C(=O)N[C@@H](CCSC)C(=O)N[C@H](C(=O)NCCCCCC(N)=O)[C@@H](C)CC [D-Nle-Met-Ile-NH—(CH2)5—CONH2] (H-[dNle]MI[Ahx]-NH2)
- Inhibition of HGF-dependent Met phosphorylation (Met): no ability to effect on Met activation
- Inhibition of HGF-dependent Met phosphorylation (Met; listed as Met): not different than the HGF group
- Ki (human HGF [1]): 138 nM
- Inhibition of HGF-dependent MDCK cell scattering (MDCK cells [2]): not different
- Inhibition of HGF dimerization (human HGF [3]): unable to block dimerization at the concentration tested

Molecule: CCCC[C@@H](N)C(=O)N[C@@H](Cc1c[nH]c2ccccc12)C(=O)N[C@H](C(=O)NCCCCCC(N)=O)[C@@H](C)CC [D-Nle-Trp-Ile-NH—(CH2)5—CONH2] (H-[dNle]WI[Ahx]-NH2)
- Inhibition of HGF-dependent Met phosphorylation (Met): intermediate inhibitory activity
- Ki (human HGF [1]): 3.37 nM
- Inhibition of HGF-dependent MDCK cell scattering (MDCK cells [2]): different from the HGF alone group but not different from the control group
- Inhibition of HGF dimerization (human HGF [3]): intermediate inhibition of dimerization
- Inhibition of HGF dimerization (human HGF [3]; listed as Trp): statistically different than the HGF treated group
- Inhibition of HGF-dependent MDCK cell proliferation (MDCK cells [4]): showed inhibitory activity, albeit less than that observed with the most potent analogs

Molecule: CN1[C@@H]2C[C@@H](OC(=O)[C@H](CO)c3ccccc3)C[C@H]1[C@@H]1O[C@@H]12 [scopolamine, scopolamine hydrobromide]
- Mean latency to find the pedestal, day one (rats; scopolamine treated rats): 114.7 s
- Mean latency to find the pedestal, final day (day 8) (rats; scopolamine treated rats): 84.8 s
- Mean latency to find the pedestal, fourth day (rats; scopolamine treated rats): 102.4 s

Molecule: DYIRNC (Synthetic hinge peptide) [novel HGF antagonist; peptide representing the dimerization domain (hinge region) of HGF; KDYIRN in b79]
- mEPSC mean frequency (hippocampal neurons [5]): 4.51±0.47
- Blockade of Dihexa's reversal of scopolamine cognitive dysfunction (scopolamine treated rats): blocked
- Effect on learning in the water maze (rats; Hinge alone): no effect on learning
- Mean latency to find the pedestal, day one (rats; [7]): 111.1 s
- Mean latency to find the pedestal, final day (day 8) (rats; [7]): 46.1 s
- Mean latency to find the pedestal, fourth day (rats; [7]): 78.3 s
- Inhibition of Dihexa-induced spinogenesis (hippocampal neurons [6]; Hinge 10^−12 M, Dihexa 10^−12 M): did effectively inhibit spine formation; also recorded: inhibits Dihexa-induced spinogenesis; also recorded: inhibits Dihexa induced spinogenesis
- Inhibition of HGF-induced spinogenesis (hippocampal neurons [6]; Hinge 10^−12 M, HGF 10 ng/ml): did effectively inhibit spine formation; also recorded: inhibits HGF-induced spinogenesis; also recorded: inhibits HGF induced spinogenesis
- Inhibition of Nle1-AngIV-induced spinogenesis (hippocampal neurons [6]; Hinge 10^−12 M, Nle1-AngIV 10^−12 M): did effectively inhibit spine formation; also recorded: inhibits Nle1-AngIV-induced spinogenesis; also recorded: inhibits Nle^1-AngIV induced spinogenesis
- Effect on basal spinogenesis (hippocampal neurons [6]; Hinge alone, wide range of doses): no effect on spinogenesis over a wide range of doses; also recorded: does not affect spinogenesis; also recorded: had no effect on basal spine levels
